Converted amounts (≈) assume the structure as drawn. Peptide text beside a SMILES is read from it. * marks the point of attachment. Orn(α-tetramethylguanidino) = CN(C)C(=N[C@@H](CCCN)C(=O)*)N(C)C
Assays:
E. coli DSM 1103 = format: cell-based, Escherichia coli
Experimental: (§1) The minimum inhibitory concentrations (MIC) of the peptides were determined in a double assay of triplicates using a positive control sample (gentamycin) and a negative control sample (0.9% NaCl solution), according to a modified protocol from Wiegand et al. (Wiegand, 2008).
(§2) For this purpose, the peptides were dissolved in water and were diluted in a double dilution series with 1/8 MH (eight-fold diluted Mueller-Hinton-Medium—2.6 g/L, Merck) in sterile 96-well, plates (Greiner Bio-One GmbH) in twelve dilution steps from 128 μg/mL to 62.5 ng/mL. Overnight cultures were adjusted using ⅛ MHB to approximately 1.5×10^7 colony forming units per mL. Of these, 50 μL of peptide solution per well was mixed with 50 μL bacteria solution each to obtain an initial concentration of […] bacteria per well. After 20 hours of incubation at 37′C, the absorption was determined at 595 nm (microplate reader, Wallac Victor3, Perkin Elmer). The minimum inhibitory concentration was identified as the lowest peptide concentration at which no bacterial growth could be detected.

[1] = tested on: Escherichia coli ATCC25922; format: cell-based
S. aureus DSM 6247 [2] = format: cell-based, Staphylococcus aureus
Experimental: as §1, §2
(§3) In the experiment, the antibacterial activity of the peptides according to the invention in relation to the following bacterial strains was analyzed: Pseudomonas aeruginosa PAO1 (wt strain), Pseudomonas aeruginosa DSM 9644, Staphylococcus aureus DSM 1104/ATCC 25923, Staphylococcus aureus ATCC 6247, Escherichia coli UB 1005 (F—, nalA37, metB1) and Escherichia coli ATCC25922.

E. coli BL21AI = format: cell-based, Escherichia coli
in vitro = settings: for half-life: mouse
Experimental: The serum stability of selected apidaecin derivatives was also measured.

K. pneumoniae DSM 681 = format: cell-based
Experimental: as §1
(§4) […] Overnight cultures were adjusted using ⅛ MHB to approximately 1.5×10^7 colony forming units per mL. Of these, 50 μL of peptide solution per well was mixed with 50 μL bacteria solution each to obtain an initial concentration of […] bacteria per well. After 20 hours of incubation at 37′C, the absorption was determined at 595 nm (microplate reader, Wallac Victor3, Perkin Elmer). The minimum inhibitory concentration was identified as the lowest peptide concentration at which no bacterial growth could be detected.

[3] = tested on: Pseudomonas aeruginosa DSM 9644; format: cell-based
Experimental: as §1, §4, §3

S. aureus DSM 6247 [4] = format: cell-based, Staphylococcus aureus; remark: listed apart in the source

Row | Molecule | MIC E. coli DSM 1103 (E. coli DSM 1103) | MIC E. coli ATCC 25922 TSB [1] | MIC S. aureus DSM 6247 (S. aureus DSM 6247 [2]) | MIC E. coli BL21AI TSB (E. coli BL21AI) | peptide remaining, printed in the column t1/2 100% serum (in vitro; 100% mouse serum, after 2 hours) | MIC K. pneumoniae DSM 681 TSB (K. pneumoniae DSM 681) | MIC P. aeruginosa DSM 9644 TSB [3] | MIC P. aeruginosa PAO DSM 9644 [3] | MIC S. aureus DSM 6247 MHB (S. aureus DSM 6247 [4]) | fragment found (100% mouse serum) | half-life (in vitro; 25% mouse serum) | half-life (in vitro; 100% mouse serum)
1 | CC[C@H](C)[C@H](NC(=O)[C@H](Cc1ccc(O)cc1)NC(=O)[C@@H](NC(=O)[C@@H]1CCCN1C(=O)[C@H](CCCNC(=N)N)NC(=O)[C@H](CC(N)=O)NC(=O)[C@H](Cc1c[nH]c2ccccc12)NC(=O)[C@H](CCCN)N=C(N(C)C)N(C)C)C(C)C)C(=O)N1CCC[C@H]1C(=O)N[C@@H](CCCNC(=N)N)C(=O)N1CCC[C@H]1C(=O)N[C@@H](CCCNC(=N)N)C(=O)N[C@@H](CCCNC(=N)N)C(=O)N1CCC[C@H]1C(=O)N[C@@H](Cc1c[nH]cn1)C(=O)N1CCC[C@H]1C(=O)N[C@@H](CCCNC(=N)N)C(=O)N[C@@H](CC(C)C)C(=O)O [compound 87] ({Orn(α-tetramethylguanidino)}-WNRPVYIPRPRRPHPRL-OH; N-terminus and C-terminus assumed) | 8 µg/mL (≈ 3.3 µM) | 8 µg/mL (≈ 3.3 µM) | 16 µg/mL (≈ 6.6 µM) | 8 µg/mL (≈ 3.3 µM) | 0% after | 4 to 8 µg/mL | 8 µg/mL (≈ 3.3 µM) | 8 µg/mL (≈ 3.3 µM) | 4 µg/mL (≈ 1.65 µM) |  |  | 
2 | gu-ONNRPVYIPRPRPPHPRL-OH |  |  |  |  |  |  |  |  |  | gu-O1-R17 |  | 
3 | CC[C@H](C)[C@H](NC(=O)[C@H](Cc1ccc(O)cc1)NC(=O)[C@@H](NC(=O)[C@@H]1CCCN1C(=O)[C@H](CCCNC(=N)N)NC(=O)[C@H](CC(N)=O)NC(=O)[C@H](CC(N)=O)NC(=O)[C@H](CCCN)N=C(N(C)C)N(C)C)C(C)C)C(=O)N1CCC[C@H]1C(=O)N[C@@H](CCCNC(=N)N)C(=O)N1CCC[C@H]1C(=O)N[C@@H](CCCNC(=N)N)C(=O)N1CCC[C@H]1C(=O)N1CCC[C@H]1C(=O)N[C@@H](Cc1c[nH]cn1)C(=O)N1CCC[C@H]1C(=O)N[C@@H](CCCNC(=N)N)C(=O)N[C@@H](CC(C)C)C(N)=O [compound 92] ({Orn(α-tetramethylguanidino)}-NNRPVYIPRPRPPHPRL-NH2; N-terminus and C-terminus assumed) |  | 2 µg/mL (≈ 0.873 µM) |  | 1 µg/mL (≈ 0.437 µM) |  | 2 µg/mL (≈ 0.873 µM) | 8 µg/mL (≈ 3.49 µM) |  | 8 µg/mL (≈ 3.49 µM) |  | 0.25 ± 0.0167 h | 
4 | CC[C@H](C)[C@H](NC(=O)[C@H](Cc1ccc(O)cc1)NC(=O)[C@@H](NC(=O)[C@@H]1CCCN1C(=O)[C@H](CCCNC(=N)N)NC(=O)[C@H](CC(N)=O)NC(=O)[C@H](Cc1c[nH]c2ccccc12)NC(=O)[C@H](CCCN)N=C(N(C)C)N(C)C)C(C)C)C(=O)N1CCC[C@H]1C(=O)N[C@@H](CCCNC(=N)N)C(=O)N1CCC[C@H]1C(=O)N[C@@H](CCCNC(=N)N)C(=O)N1CCC[C@H]1C(=O)N1CCC[C@H]1C(=O)N[C@@H](Cc1c[nH]cn1)C(=O)N1CCC[C@H]1C(=O)N[C@@H](CCCNC(=N)N)C(=O)N[C@@H](CC(C)C)C(=O)O [compound 85] ({Orn(α-tetramethylguanidino)}-WNRPVYIPRPRPPHPRL-OH; N-terminus and C-terminus assumed) | 4 µg/mL (≈ 1.69 µM) | 4 µg/mL (≈ 1.69 µM) | 16 µg/mL (≈ 6.77 µM) | 2 µg/mL (≈ 0.846 µM) |  | 2 µg/mL (≈ 0.846 µM) | 8 to 16 µg/mL | 16 µg/mL (≈ 6.77 µM) | 4 µg/mL (≈ 1.69 µM) |  |  | 3.95 ± 0.25 h
5 | gu-OWNRPVYIPRPRRPHPRL-OH |  |  |  |  |  |  |  |  |  | gu-O1-R12 (Api341 analogue) |  | 
6 | CC[C@H](C)[C@H](NC(=O)[C@H](Cc1ccc(O)cc1)NC(=O)[C@@H](NC(=O)[C@@H]1CCCN1C(=O)[C@H](CCCNC(=N)N)NC(=O)[C@H](CC(N)=O)NC(=O)[C@H](CC(N)=O)NC(=O)[C@H](CCCN)N=C(N(C)C)N(C)C)C(C)C)C(=O)N1CCC[C@H]1C(=O)N[C@@H](CCCNC(=N)N)C(=O)N1CCC[C@H]1C(=O)N[C@@H](CCCNC(=N)N)C(=O)N1CCC[C@H]1C(=O)N1CCC[C@H]1C(=O)N[C@@H](Cc1c[nH]cn1)C(=O)N1CCC[C@H]1C(=O)N[C@@H](CCCNC(=N)N)C(=O)N[C@@H](CCCNC(=N)N)C(=O)O [compound 84] ({Orn(α-tetramethylguanidino)}-NNRPVYIPRPRPPHPRR-OH) | 4 µg/mL (≈ 1.71 µM) |  | 8 µg/mL (≈ 3.43 µM) |  |  |  |  | 64 µg/mL (≈ 27.4 µM) |  |  |  | 
7 | CC[C@H](C)[C@H](NC(=O)[C@H](Cc1ccc(O)cc1)NC(=O)[C@@H](NC(=O)[C@@H]1CCCN1C(=O)[C@H](CCCNC(=N)N)NC(=O)[C@H](CC(N)=O)NC(=O)[C@H](CC(N)=O)NC(=O)[C@H](CCCN)N=C(N(C)C)N(C)C)C(C)C)C(=O)N1CCC[C@H]1C(=O)N[C@@H](CCCNC(=N)N)C(=O)N1CCC[C@H]1C(=O)N[C@@H](CCCNC(=N)N)C(=O)N[C@@H](CCCNC(=N)N)C(=O)N1CCC[C@H]1C(=O)N[C@@H](Cc1c[nH]cn1)C(=O)N1CCC[C@H]1C(=O)N[C@@H](CCCNC(=N)N)C(=O)N[C@@H](CC(C)C)C(N)=O [compound 88] ({Orn(α-tetramethylguanidino)}-NNRPVYIPRPRRPHPRL-NH2) | 8 µg/mL (≈ 3.4 µM) |  | 16 µg/mL (≈ 6.81 µM) |  |  |  |  | 16 µg/mL (≈ 6.81 µM) |  |  |  | 
8 | CC[C@H](C)[C@H](NC(=O)[C@H](Cc1ccc(O)cc1)NC(=O)[C@@H](NC(=O)[C@@H]1CCCN1C(=O)[C@H](CCCNC(=N)N)NC(=O)[C@H](CC(N)=O)NC(=O)[C@H](Cc1c[nH]c2ccccc12)NC(=O)[C@H](CCCN)N=C(N(C)C)N(C)C)C(C)C)C(=O)N1CCC[C@H]1C(=O)N[C@@H](CCCNC(=N)N)C(=O)N1CCC[C@H]1C(=O)N[C@@H](CCCNC(=N)N)C(=O)N[C@@H](CCCNC(=N)N)C(=O)N1CCC[C@H]1C(=O)N[C@@H](Cc1c[nH]cn1)C(=O)N1CCC[C@H]1C(=O)N[C@@H](CCCNC(=N)N)C(=O)N[C@@H](CC(C)C)C(N)=O [compound 89] ({Orn(α-tetramethylguanidino)}-WNRPVYIPRPRRPHPRL-NH2; N-terminus and C-terminus assumed) | 8 µg/mL (≈ 3.3 µM) | 16 µg/mL (≈ 6.61 µM) | 8 to 16 µg/mL | 8 µg/mL (≈ 3.3 µM) |  | >64 µg/mL | 8 µg/mL (≈ 3.3 µM) | 4 µg/mL (≈ 1.65 µM) | 2 µg/mL (≈ 0.826 µM) |  | 0.267 ± 0.0167 h | 
9 | CC[C@H](C)[C@H](NC(=O)[C@H](Cc1ccc(O)cc1)NC(=O)[C@@H](NC(=O)[C@@H]1CCCN1C(=O)[C@H](CCCNC(=N)N)NC(=O)[C@H](CC(N)=O)NC(=O)[C@H](CC(N)=O)NC(=O)[C@H](CCCN)N=C(N(C)C)N(C)C)C(C)C)C(=O)N1CCC[C@H]1C(=O)N[C@@H](CCCNC(=N)N)C(=O)N1CCC[C@H]1C(=O)N[C@@H](CCCNC(=N)N)C(=O)N[C@@H](CCCNC(=N)N)C(=O)N1CCC[C@H]1C(=O)N[C@@H](Cc1c[nH]cn1)C(=O)N1CCC[C@H]1C(=O)N[C@@H](CCCNC(=N)N)C(=O)N[C@@H](CC(C)C)C(=O)O [compound 86] ({Orn(α-tetramethylguanidino)}-NNRPVYIPRPRRPHPRL-OH) | 8 µg/mL (≈ 3.4 µM) |  | 32 µg/mL (≈ 13.6 µM) |  |  |  |  | 32 µg/mL (≈ 13.6 µM) |  |  |  | 
10 | CC[C@H](C)[C@H](NC(=O)[C@H](Cc1ccc(O)cc1)NC(=O)[C@@H](NC(=O)[C@@H]1CCCN1C(=O)[C@H](CCCNC(=N)N)NC(=O)[C@H](CC(N)=O)NC(=O)[C@H](CC(N)=O)NC(=O)[C@H](CCCN)N=C(N(C)C)N(C)C)C(C)C)C(=O)N1CCC[C@H]1C(=O)N[C@@H](CCCNC(=N)N)C(=O)N1CCC[C@H]1C(=O)N[C@@H](CCCNC(=N)N)C(=O)N1CCC[C@H]1C(=O)N1CCC[C@H]1C(=O)N[C@@H](Cc1c[nH]cn1)C(=O)N1CCC[C@H]1C(=O)N[C@@H](CCCNC(=N)N)C(=O)N[C@@H](CC(C)C)C(=O)O [compound 93] ({Orn(α-tetramethylguanidino)}-NNRPVYIPRPRPPHPRL-OH; N-terminus and C-terminus assumed) |  | 4 µg/mL (≈ 1.75 µM) |  | 1 µg/mL (≈ 0.436 µM) |  | 2 µg/mL (≈ 0.873 µM) | 16 µg/mL (≈ 6.98 µM) |  | 16 to 32 µg/mL |  |  | 5.83 ± 0.567 h

— patent publication US9556228B2 (Universitaet Leipzig, priority 2011, dated 2017)
